Test results: patent publication US4481201A, “Pharmaceutical composition containing N,N^3 -di-(β-bromopropionyl)-N^1,N^2 -dispirotripiperazinium dichloride” (Vsesojuzny Nauchno-Issledovatelsky Khimoko-Farmasevtichesky …, priority 1981, dated 1984)

Legend:
Ienssen's sarcoma = assay: Growth of graft Ienssen sarcoma in rats; type: in vivo
Description: (§1) The antitumor activity has been studied on white rats weighing 110-130 g, as well as on white noninbred and inbred mice weighing 17-21 g with ligated tumors. The treatment is started 5-7 days transplanting of solid tumors and the following day after the transplanting of leukotic strains. Use has been made of the following transplantable strains of the tumors:
(§2) (1) rats: Ienssen's sarcoma, sarcoma 45, sarcoma M-1, sarcoma 536;
(§3) The compounds of the general formula (I), wherein X represents Cl^- (compound 1), Br^- (compound 2) are well-soluble in an isotonic solution of sodium chloride and they are administered intraperitoneally. The doses of the compounds have been calculated in mg per kg of the animal bodyweight.

sarcoma 45 = assay: Growth of graft sarcoma 45 in rats; type: in vivo; conditions: for Change in the animal body weight, test / It, % tumor growth suppression index: rats
Description: as §1, §2, §3

sarcoma 536 = assay: Growth of graft sarcoma 536 in rats; type: in vivo
Description: as §1, §2, §3

sarcoma M-1 = assay: Growth of graft sarcoma M-1 in rats; type: in vivo
Description: as §1, §2, §3

sarcoma 180 = assay: Growth of graft sarcoma 180 in mice; type: in vivo, noninbred white mice; conditions: mice, at MTD (dose not given)
Description: as §1
(§4) (2) noninbred white mice: sarcoma 180, sarcoma AK, sarcoma 37, carcinoma HK;
as §3

sarcoma 37 = assay: Growth of graft sarcoma 37 in mice; type: in vivo, noninbred white mice; conditions: mice, at MTD (dose not given)
Description: as §1, §4, §3

sarcoma AK = assay: Growth of graft sarcoma AK in mice; type: in vivo, noninbred white mice; conditions: mice, at MTD (dose not given)
Description: as §1, §4, §3

leukemia La = assay: Life span of mice with transplantable leukemia La; type: in vivo, inbred mice; conditions: leukemia La, MTD
Description: as §1
(§5) (3) inbred mice: leukemia La, leukemia L1210 and P-388.
(§6) The activity of compounds relative to leukosis has been assessed by the life span (It) of treated animals as compared to the control ones. It --index of suppression of leukosis development is calculated by the formula: [formula]

[1] = Toxicity on single and repeated administration to mice; type: in vivo
Procedure: (3) acute toxicity of the compounds upon a single and repeated administration to white noninbred mice places into standard cages with 8 animals in each.
In the investigation of toxic properties of the compounds according to the present invention there has been determined the absolutely lethal dose (DL95), average lethal dose (DL50) and MTD. For compounds 1 and 2 there were determined DL95 and DL50 on healthy white mice with the body mass of 18-21 g at a single and repeated (once a day, daily for 7 days) intraperitoneal administration.

Solubility = type: physicochemical
Procedure: as §3
To a mixture of 3 g of N^1,N^2 -dispirotripiperazinium dichloride, 1.5 g of lithium hydroxide, 1 ml of water and 10 ml of ether a solution of 5.2 g of β-bromopropionic acid chlorid in 5 ml of ether is added under vigorous stirring and at a temperature of 5° to 10° C. The reaction mass is stirred for 2 hours at the temperature of 15° C. The residue is filtered off, dissolved in 10 ml of water; the resulting aqueous solution is poured in 100 ml of methanol.

transplantable leukemia = assay: Activity relative to leukoses of inbred mice (overall); type: in vivo
Description: (2) activity of the compounds relative to leukoses of inbred mice;
as §1, §5, §6

[2] = rats, 21 mg/kg intraperitoneally, 44 injections
[3] = rats, 39 mg/kg intraperitoneally, 5 injections
[4] = rats, 86 mg/kg intraperitoneally, 4 injections
[5] = rats, 88 mg/kg intraperitoneally, 5 injections
[6] = rats, 2,1 mg/kg intraperitoneally, 7 injections
[7] = rats, 4,2 mg/kg intraperitoneally, 7 injections
[8] = 44 mg/kg intraperitoneally, 7 injections
[9] = 83 mg/kg intraperitoneally, 7 injections
[10] = rats, 81 mg/kg intraperitoneally, 6 injections
[11] = mice, single intraperitoneal administration

## O=C(CCBr)N1CC[N+]2(CC1)CC[N+]1(CCN(C(=O)CCBr)CC1)CC2 [Compound 2]
Ienssen's sarcoma; Ienssen sarcoma
  Ch/T chemotherapeutical index (ratio of MTD to minimum effective dose): 50
Ienssen's sarcoma; rats with Ienssen sarcoma, repeated intraperitoneal administration
  Maximum tolerable dose (MTD): 149 mg/kg
Ienssen's sarcoma; rats, 8 mg/kg intraperitoneally, 7 injections
  Change in the animal body weight, test: +21 g
Ienssen's sarcoma; [2]
  Change in the animal body weight, test: +34 g
  It, % tumor growth suppression index: +90%
Ienssen's sarcoma; [3]
  Change in the animal body weight, test: +14 g
  It, % tumor growth suppression index: +99%
Ienssen's sarcoma; [4]
  Change in the animal body weight, test: +1 g
  It, % tumor growth suppression index: +99%
Ienssen's sarcoma; [5]
  Change in the animal body weight, test: +1 g
  It, % tumor growth suppression index: +99%
Ienssen's sarcoma; rats, 149 mg/kg intraperitoneally (MTD), 5 injections
  Change in the animal body weight, test: -30 g
Ienssen's sarcoma; [6]
  Change in the animal body weight, test: +5 g
  It, % tumor growth suppression index: +46%
Ienssen's sarcoma; [7]
  Change in the animal body weight, test: +6 g
  It, % tumor growth suppression index: +35%
Sarcoma 45; rats with sarcoma 45, repeated intraperitoneal administration
  Maximum tolerable dose (MTD): 95 mg/kg
Sarcoma 45; 20 mg/kg intraperitoneally, 7 injections
  Change in the animal body weight, test: -12 g
Sarcoma 45; 20 mg/kg intraperitoneally, 7 injections, 20 mg/kg
  It, % tumor growth suppression index: +66%
Sarcoma 45; [8]
  Change in the animal body weight, test: +4 g
  It, % tumor growth suppression index: +96%
Sarcoma 45; [9]
  Change in the animal body weight, test: +6 g
  It, % tumor growth suppression index: +96%
Sarcoma 45; 95 mg/kg intraperitoneally (MTD), 6 injections
  Change in the animal body weight, test: -6 g
Sarcoma 536; rats with sarcoma 536, repeated intraperitoneal administration
  Maximum tolerable dose (MTD): 133 mg/kg
Sarcoma 536; [10]
  Change in the animal body weight, test: -15 g
  It, % tumor growth suppression index: +52%
Sarcoma 536; rats, 133 mg/kg intraperitoneally (MTD), 5 injections
  Change in the animal body weight, test: -14 g
Sarcoma M-1; rats with sarcoma M-1, repeated intraperitoneal administration
  Maximum tolerable dose (MTD): 95 mg/kg
Sarcoma M-1; rats, 95 mg/kg intraperitoneally (MTD), 6 injections
  Change in the animal body weight, test: +8 g
Sarcoma 180
  suppression of sarcoma 180: 52%
Sarcoma 37
  suppression of sarcoma 37: 60%
Sarcoma AK
  suppression of sarcoma AK: 81%
Leukemia La
  extension of life span of treated mice as compared to the control: 2 times
[1]; mice, repeated intraperitoneal administration (once a day, daily for 7 days)
  DL50 (average lethal dose): 150 mg/kg
[1]; [11]
  DL50 (average lethal dose): 1,150 mg/kg
  DL95 (absolutely lethal dose): 1,250 mg/kg
[1]; repeated intraperitoneal administration
  MTD: 125 mg/kg
Solubility
  solubility in an isotonic solution of sodium chloride: well-soluble
Transplantable leukemia
  effect on transplantable leukemia in mice: clearly pronounced antileukotic effect
